Results reported in patent US20130072430A1, “METHODS FOR TREATMENT OR PROPHYLAXIS OF KIDNEY OR LIVER DYSFUNCTION” (NPS PHARMACEUTICALS, INC., priority 2010, published 2013).

System: Human patients with short bowel syndrome
Test: Example 3: change from baseline to week 24 in liver enzyme levels (ALP, ALT, AST, total bilirubin, GGTP) by responder status (reduced parenteral nutrition)
Format: in vivo
Details: 0.05 mg/kg/day
Procedure: In this example the data presented in Example 2 are analyzed to evaluate whether the beneficial effects of teduglutide on liver function tests are related to the reduction of parenteral nutrition volume.
Table 5 depicts the change in liver enzyme levels from baseline to week 24 in responders and non-responders. Responders are human patients with reduced parenteral nutrition, while non-responders are human patients without reduced parenteral nutrition. Human patients either received placebo or teduglutide at 0.05 mg/kg/day. Known biomarkers of liver function were monitored for 24 weeks. The liver biomarkers tested included ALP, ALT, AST, total bilirubin and GGTP.
Table 6 depicts the change in liver enzyme levels (ALP, ALT, AST, total bilirubin and GGTP), as presented in Table 5, and stratifies them by treatment group (placebo versus teduglutide at 0.05 mg/kg/day) and responder status (responder versus non-responder).

## CC[C@H](C)[C@H](NC(=O)[C@H](Cc1ccccc1)NC(=O)[C@H](CC(=O)O)NC(=O)[C@H](CCCNC(=N)N)NC(=O)[C@H](C)NC(=O)[C@H](C)NC(=O)[C@H](CC(C)C)NC(=O)[C@H](CC(N)=O)NC(=O)[C@H](CC(=O)O)NC(=O)[C@H](CC(C)C)NC(=O)[C@@H](NC(=O)[C@@H](NC(=O)[C@H](CC(N)=O)NC(=O)[C@H](CCSC)NC(=O)[C@H](CCC(=O)O)NC(=O)[C@H](CC(=O)O)NC(=O)[C@H](CO)NC(=O)[C@H](Cc1ccccc1)NC(=O)[C@H](CO)NC(=O)CNC(=O)[C@H](CC(=O)O)NC(=O)CNC(=O)[C@@H](N)Cc1c[nH]cn1)[C@@H](C)O)[C@@H](C)CC)C(=O)N[C@@H](CC(N)=O)C(=O)N[C@@H](Cc1c[nH]c2ccccc12)C(=O)N[C@@H](CC(C)C)C(=O)N[C@H](C(=O)N[C@@H](CCC(N)=O)C(=O)N[C@H](C(=O)N[C@@H](CCCCN)C(=O)N[C@H](C(=O)N[C@H](C(=O)N[C@@H](CC(=O)O)C(=O)O)[C@@H](C)O)[C@@H](C)CC)[C@@H](C)O)[C@@H](C)CC [teduglutide]
Baseline to week 24
  relation of effect on liver function tests to reduction of parenteral nutrition (responders vs non-responders): the major part of the effect is not mediated through the reduction of parenteral nutrition
Non-responder, n=11
  ALKALINE PHOSPHATASE change from Baseline to Week 24, Mean: −13.82 U/L
  ALKALINE PHOSPHATASE change from Baseline to Week 24, Median: −7 U/L
  ALT change from Baseline to Week 24, Mean: −3.82 U/L
  ALT change from Baseline to Week 24, Median: −3 U/L
  AST change from Baseline to Week 24, Mean: −2.18 U/L
  AST change from Baseline to Week 24, Median: −2 U/L
  BILIRUBIN, TOTAL change from Baseline to Week 24, Mean: -2.43 µmol/L
  BILIRUBIN, TOTAL change from Baseline to Week 24, Median: -1.7 µmol/L
  GGTP change from Baseline to Week 24, Mean: −1.91 U/L
  GGTP change from Baseline to Week 24, Median: 3 U/L
Responder, n=27
  ALKALINE PHOSPHATASE change from Baseline to Week 24, Mean: −35.52 U/L
  ALKALINE PHOSPHATASE change from Baseline to Week 24, Median: −34 U/L
  ALT change from Baseline to Week 24, Mean: −17.48 U/L
  ALT change from Baseline to Week 24, Median: −14 U/L
  AST change from Baseline to Week 24, Mean: −7.30 U/L
  AST change from Baseline to Week 24, Median: −7 U/L
  BILIRUBIN, TOTAL change from Baseline to Week 24, Mean: -4.19 µmol/L
  BILIRUBIN, TOTAL change from Baseline to Week 24, Median: -2.4 µmol/L
  GGTP change from Baseline to Week 24, Mean: −18.41 U/L
  GGTP change from Baseline to Week 24, Median: −10 U/L
Total, n=38
  ALKALINE PHOSPHATASE change from Baseline to Week 24, Mean: −29.24 U/L
  ALKALINE PHOSPHATASE change from Baseline to Week 24, Median: −24.5 U/L
  ALT change from Baseline to Week 24, Mean: −13.53 U/L
  ALT change from Baseline to Week 24, Median: −7.5 U/L
  AST change from Baseline to Week 24, Mean: −5.82 U/L
  AST change from Baseline to Week 24, Median: −5 U/L
  BILIRUBIN, TOTAL change from Baseline to Week 24, Mean: -3.68 µmol/L
  BILIRUBIN, TOTAL change from Baseline to Week 24, Median: -2.35 µmol/L
  GGTP change from Baseline to Week 24, Mean: −13.63 U/L
  GGTP change from Baseline to Week 24, Median: −6 U/L
By Treatment
  ALKALINE PHOSPHATASE change from Baseline to Week 24, LS Means: −24.67 U/L
  ALT change from Baseline to Week 24, LS Means: −10.65 U/L
  AST change from Baseline to Week 24, LS Means: −4.74 U/L
  BILIRUBIN, TOTAL change from Baseline to Week 24, LS Means: -3.31 µmol/L
  GGTP change from Baseline to Week 24, LS Means: −10.16 U/L
